Test in all cases: relative viability (nuclei count vs DMSO), 5 days (fraction); higher = more cells survive
Compound in the experiment “Crenolanib + Phenformin”: CC1(COc2ccc3c(c2)ncn3-c2ccc3cccc(N4CCC(N)CC4)c3n2)COC1 [Crenolanib] + N=C(N)NC(=N)NCCc1ccccc1 [Phenformin] (partner 250 µM)
A digest of the protocol:
(§1)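 Values are medians from duplicate plates. Each reflects relative viability, defined as the nuclei count of treated wells over that of vehicle wells. Lung cancer cell lines in 1536-well plates were pin-tool dosed one day after seeding with one drug alone or with a fixed anchor-drug dose plus five library-drug doses (not always all listed) in √10 steps, then fixed, stained and imaged at 4× after 5 days.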

Compound in the experiment “Tivantinib + Trametinib”: O=C1NC(=O)[C@@H](c2cn3c4c(cccc24)CCC3)[C@@H]1c1c[nH]c2ccccc12 [Tivantinib] + CC(=O)Nc1cccc(-n2c(=O)n(C3CC3)c(=O)c3c(Nc4ccc(I)cc4F)n(C)c(=O)c(C)c32)c1 [Trametinib] (partner 0.02 µM)
In short, it runs like this:
as §1

Compound in the experiment “Tivantinib + Pictilisib”: O=C1NC(=O)[C@@H](c2cn3c4c(cccc24)CCC3)[C@@H]1c1c[nH]c2ccccc12 [Tivantinib] + CS(=O)(=O)N1CCN(Cc2cc3nc(-c4cccc5[nH]ncc45)nc(N4CCOCC4)c3s2)CC1 [Pictilisib] (partner 1 µM)
A digest of the protocol:
as §1

Compound in the experiment “Tivantinib + Vorinostat”: O=C1NC(=O)[C@@H](c2cn3c4c(cccc24)CCC3)[C@@H]1c1c[nH]c2ccccc12 [Tivantinib] + O=C(CCCCCCC(=O)Nc1ccccc1)NO [Vorinostat] (partner 1 µM)
In short, it runs like this: as §1

Consider ten cell lines from the supplement of paper PMC10307832.

For the cell line 201T, the relative viability with Crenolanib + Phenformin (first compound 0.01 µM) amounted to 0.438; with Crenolanib + Phenformin (first compound 0.03162 µM), 0.446; with Crenolanib + Phenformin (first compound 0.1 µM) it was 0.438; in the experiment with Crenolanib + Phenformin (first compound 0.3162 µM), 0.446; with Crenolanib + Phenformin (first compound 1 µM), 0.435; in the experiment with Tivantinib + Trametinib (first compound 0.01 µM) it was 0.694. For the same cell line, the relative viability in the experiment with Tivantinib + Trametinib (first compound 0.03162 µM) was found to be 0.713; with Tivantinib + Trametinib (first compound 0.1 µM), 0.729; with Tivantinib + Trametinib (first compound 0.3162 µM), 0.69; with Tivantinib + Pictilisib (first compound 0.01 µM), 0.713; with Tivantinib + Pictilisib (first compound 0.03162 µM) it was 0.569; with Tivantinib + Pictilisib (first compound 0.1 µM), 0.673. Further, the relative viability in the experiment with Tivantinib + Pictilisib (first compound 0.3162 µM) is 0.694; with Tivantinib + Vorinostat (first compound 0.01 µM), 0.894; with Tivantinib + Vorinostat (first compound 0.03162 µM), 0.835; in the experiment with Tivantinib + Vorinostat (first compound 0.1 µM), 0.898; with Tivantinib + Vorinostat (first compound 0.3162 µM) it was 0.907.
In the case of A549, the relative viability with Crenolanib + Phenformin (first compound 0.01 µM) was found to be 0.193; in the experiment with Crenolanib + Phenformin (first compound 0.03162 µM), 0.185; with Crenolanib + Phenformin (first compound 0.1 µM), 0.165; in the experiment with Crenolanib + Phenformin (first compound 0.3162 µM), 0.103; in the experiment with Crenolanib + Phenformin (first compound 1 µM) it was 0.145; with Tivantinib + Pictilisib (first compound 0.01 µM), 0.495. The values for the relative viability in the experiment with Tivantinib + Pictilisib (first compound 0.03162 µM), with Tivantinib + Pictilisib (first compound 0.1 µM) and in the experiment with Tivantinib + Pictilisib (first compound 0.3162 µM) were 0.518, 0.468 and 0.449, respectively.
In the case of A-427, the relative viability with Crenolanib + Phenformin (first compound 0.01 µM) is 0.366; in the experiment with Crenolanib + Phenformin (first compound 0.03162 µM), 0.372; with Crenolanib + Phenformin (first compound 0.1 µM), 0.311; with Crenolanib + Phenformin (first compound 0.3162 µM), 0.255; with Crenolanib + Phenformin (first compound 1 µM) it was 0.244; with Tivantinib + Trametinib (first compound 0.01 µM) it was 0.795. For the same cell line, the relative viability with Tivantinib + Trametinib (first compound 0.03162 µM) amounted to 0.786; with Tivantinib + Trametinib (first compound 0.1 µM) it was 0.737; with Tivantinib + Trametinib (first compound 0.3162 µM), 0.673; with Tivantinib + Pictilisib (first compound 0.01 µM) it was 0.663; in the experiment with Tivantinib + Pictilisib (first compound 0.03162 µM), 0.702; with Tivantinib + Pictilisib (first compound 0.1 µM), 0.677. For the same cell line, the relative viability with Tivantinib + Pictilisib (first compound 0.3162 µM) came to 0.749; with Tivantinib + Vorinostat (first compound 0.01 µM) it was 0.859; with Tivantinib + Vorinostat (first compound 0.03162 µM), 0.938; with Tivantinib + Vorinostat (first compound 0.1 µM) it was 0.842; with Tivantinib + Vorinostat (first compound 0.3162 µM), 0.85.
Take ABC-1: the relative viability with Crenolanib + Phenformin (first compound 0.01 µM) was 0.21; in the experiment with Crenolanib + Phenformin (first compound 0.03162 µM) it was 0.265; in the experiment with Crenolanib + Phenformin (first compound 0.1 µM) it was 0.22; with Crenolanib + Phenformin (first compound 0.3162 µM), 0.261; in the experiment with Crenolanib + Phenformin (first compound 1 µM) it was 0.257; with Tivantinib + Pictilisib (first compound 0.01 µM) it was 0.802. Besides, the relative viability amounted to 0.51 with Tivantinib + Pictilisib (first compound 0.03162 µM); 0.681 with Tivantinib + Pictilisib (first compound 0.1 µM); 0.731 with Tivantinib + Pictilisib (first compound 0.3162 µM); 1.44 with Tivantinib + Vorinostat (first compound 0.01 µM); 1.32 with Tivantinib + Vorinostat (first compound 0.03162 µM); 1.01 with Tivantinib + Vorinostat (first compound 0.1 µM). The relative viability with Tivantinib + Vorinostat (first compound 0.3162 µM) turned out to be 1.21.
For the cell line BEN, the relative viability with Crenolanib + Phenformin (first compound 0.01 µM) turned out to be 0.259; with Crenolanib + Phenformin (first compound 0.03162 µM) it was 0.235; with Crenolanib + Phenformin (first compound 0.1 µM), 0.267; with Crenolanib + Phenformin (first compound 0.3162 µM), 0.255; with Crenolanib + Phenformin (first compound 1 µM), 0.271; in the experiment with Tivantinib + Trametinib (first compound 0.01 µM), 1.13. In addition, the relative viability with Tivantinib + Trametinib (first compound 0.03162 µM) was 0.94; with Tivantinib + Trametinib (first compound 0.1 µM), 1.01; with Tivantinib + Trametinib (first compound 0.3162 µM) it was 0.769; with Tivantinib + Pictilisib (first compound 0.01 µM), 0.703; with Tivantinib + Pictilisib (first compound 0.03162 µM), 0.41; in the experiment with Tivantinib + Pictilisib (first compound 0.1 µM), 0.501. The relative viability is 0.432 in the experiment with Tivantinib + Pictilisib (first compound 0.3162 µM); 0.591 in the experiment with Tivantinib + Vorinostat (first compound 0.01 µM); 0.566 with Tivantinib + Vorinostat (first compound 0.03162 µM); 0.528 with Tivantinib + Vorinostat (first compound 0.1 µM); 0.515 with Tivantinib + Vorinostat (first compound 0.3162 µM).
Regarding CAL-12T, the relative viability amounted to 0.533 with Crenolanib + Phenformin (first compound 0.01 µM); 0.575 in the experiment with Crenolanib + Phenformin (first compound 0.03162 µM); 0.545 in the experiment with Crenolanib + Phenformin (first compound 0.1 µM); 0.598 with Crenolanib + Phenformin (first compound 0.3162 µM); 0.538 with Crenolanib + Phenformin (first compound 1 µM); 0.451 in the experiment with Tivantinib + Trametinib (first compound 0.01 µM). Moreover, the relative viability with Tivantinib + Trametinib (first compound 0.03162 µM) was 0.269; with Tivantinib + Trametinib (first compound 0.1 µM), 0.359; with Tivantinib + Trametinib (first compound 0.3162 µM) it was 0.183; in the experiment with Tivantinib + Pictilisib (first compound 0.01 µM) it was 0.393; with Tivantinib + Pictilisib (first compound 0.03162 µM), 0.377; in the experiment with Tivantinib + Pictilisib (first compound 0.1 µM), 0.377. Moreover, the relative viability with Tivantinib + Pictilisib (first compound 0.3162 µM) worked out at 0.265; with Tivantinib + Vorinostat (first compound 0.01 µM), 0.67; with Tivantinib + Vorinostat (first compound 0.03162 µM), 0.874; in the experiment with Tivantinib + Vorinostat (first compound 0.1 µM), 0.74; with Tivantinib + Vorinostat (first compound 0.3162 µM), 0.568.
In the case of COR-L23, the relative viability with Crenolanib + Phenformin (first compound 0.01 µM) was determined as 0.444; in the experiment with Crenolanib + Phenformin (first compound 0.03162 µM) it was 0.417; in the experiment with Crenolanib + Phenformin (first compound 0.1 µM), 0.47; with Crenolanib + Phenformin (first compound 0.3162 µM) it was 0.427; with Crenolanib + Phenformin (first compound 1 µM), 0.397; in the experiment with Tivantinib + Trametinib (first compound 0.01 µM) it was 0.634. For the same cell line, the relative viability in the experiment with Tivantinib + Trametinib (first compound 0.03162 µM) was 0.558; in the experiment with Tivantinib + Trametinib (first compound 0.1 µM) it was 0.545; with Tivantinib + Trametinib (first compound 0.3162 µM), 0.661; with Tivantinib + Pictilisib (first compound 0.01 µM), 0.809; with Tivantinib + Pictilisib (first compound 0.03162 µM) it was 0.63; with Tivantinib + Pictilisib (first compound 0.1 µM), 0.762. Further, the relative viability with Tivantinib + Pictilisib (first compound 0.3162 µM) amounted to 0.98; with Tivantinib + Vorinostat (first compound 0.01 µM) it was 0.528; in the experiment with Tivantinib + Vorinostat (first compound 0.03162 µM), 0.509; with Tivantinib + Vorinostat (first compound 0.1 µM), 0.426; in the experiment with Tivantinib + Vorinostat (first compound 0.3162 µM), 0.608.
Turning to COR-L 105, the relative viability with Crenolanib + Phenformin (first compound 0.01 µM) came out at 0.625; with Crenolanib + Phenformin (first compound 0.03162 µM) it was 0.474; in the experiment with Crenolanib + Phenformin (first compound 0.1 µM), 0.497; in the experiment with Crenolanib + Phenformin (first compound 0.3162 µM), 0.5; with Crenolanib + Phenformin (first compound 1 µM), 0.547; with Tivantinib + Trametinib (first compound 0.01 µM), 0.425. Further, the relative viability in the experiment with Tivantinib + Trametinib (first compound 0.03162 µM) was 0.412; in the experiment with Tivantinib + Trametinib (first compound 0.1 µM), 0.455; with Tivantinib + Trametinib (first compound 0.3162 µM), 0.356; with Tivantinib + Pictilisib (first compound 0.01 µM), 0.401; with Tivantinib + Pictilisib (first compound 0.03162 µM) it was 0.335; with Tivantinib + Pictilisib (first compound 0.1 µM), 0.389. Also, the relative viability was 0.406 with Tivantinib + Pictilisib (first compound 0.3162 µM); 0.89 in the experiment with Tivantinib + Vorinostat (first compound 0.01 µM); 0.786 with Tivantinib + Vorinostat (first compound 0.03162 µM); 0.722 with Tivantinib + Vorinostat (first compound 0.1 µM); 0.771 with Tivantinib + Vorinostat (first compound 0.3162 µM).
Take Calu-6: the relative viability with Tivantinib + Pictilisib (first compound 0.01 µM) worked out at 0.917; in the experiment with Tivantinib + Pictilisib (first compound 0.03162 µM) it was 0.931; with Tivantinib + Pictilisib (first compound 0.1 µM), 0.901; with Tivantinib + Pictilisib (first compound 0.3162 µM), 0.889.
As for ChaGo-K-1, the relative viability with Crenolanib + Phenformin (first compound 0.01 µM) was 0.533; with Crenolanib + Phenformin (first compound 0.03162 µM), 0.495; with Crenolanib + Phenformin (first compound 0.1 µM) it was 0.536; in the experiment with Crenolanib + Phenformin (first compound 0.3162 µM) it was 0.42; with Crenolanib + Phenformin (first compound 1 µM), 0.497; with Tivantinib + Trametinib (first compound 0.01 µM) it was 0.894. For the same cell line, the relative viability with Tivantinib + Trametinib (first compound 0.03162 µM) came to 0.88; in the experiment with Tivantinib + Trametinib (first compound 0.1 µM) it was 0.867; with Tivantinib + Trametinib (first compound 0.3162 µM) it was 0.842; with Tivantinib + Pictilisib (first compound 0.01 µM), 0.851; with Tivantinib + Pictilisib (first compound 0.03162 µM), 0.608; in the experiment with Tivantinib + Pictilisib (first compound 0.1 µM), 0.757. Also, the relative viability with Tivantinib + Pictilisib (first compound 0.3162 µM) came out at 0.646; in the experiment with Tivantinib + Vorinostat (first compound 0.01 µM) it was 0.76; with Tivantinib + Vorinostat (first compound 0.03162 µM) it was 0.704; in the experiment with Tivantinib + Vorinostat (first compound 0.1 µM), 0.704; with Tivantinib + Vorinostat (first compound 0.3162 µM), 0.717.
